Assay results published in patent publication US4452812A, “Organic complex of platinum, its preparation and its use for treating malignant tumors” (Sanofi, priority 1980, dated 1984).
Entries after “also recorded” stand apart in the source; their conditions may differ.

Assays:
L 1210 cells = assay: Cellular penetration of platinum in vivo into L 1210 cells; set-up: species or system mouse (DBA/2); conditions: PHIC 150 mg/kg, two hours after treatment on D3
Method: DBA/2 mice received 10^6 L 1210 cells on D0 and were treated three days later with an amount of platinum compound equal to the LD0 in the healthy mouse. Two hours after treatment on D3, the animals were sacrificed. About 20.10^6 cells were extracted from the peritoneum and washed several times so as to eliminate the extra-cellular platinum and also any intracellular platinum which was not bound in a covalent manner with the cellular organelles. Platinum was monitored by atomic absorption for whole cells and also on the DNA which was purified by phenol extraction. […] This corresponds to 180.10^-16 g of platinum per leukemic cell. Under these conditions, one fixed platinum atom per 3000 nucleotides was found, i.e. a total of 1% of the amount which penetrated the cells was complexed to DNA. […] 10^-16 of platinum per cell.

sarcoma S 180 = assay: Anti-tumour activity, sarcoma S 180 ascite, i.p. graft, i.p. treatment; assay type: in vivo, mouse (Swiss female); conditions: for ILS: single i.p. on D1
Method: Swiss female mice (Evic-Ceba, Bordeaux) of 20 to 22 g
10^6 cells intraperitoneally grafted on D0
intraperitoneal treatment 24 hours later, D1, in one single injection.
The solutions of these compounds were prepared extemporaneously.

In the case of `NC1CCCCC1N.O=C([O-])CC(C(=O)[O-])C([O-])C(=O)[O-].[H+].[H+].[Pt+2]` (stereo not drawn) [PHIC, cis-isocitrato (1,2-diaminocyclohexane) platinum (II)], the “Amount of penetrating platinum per cell” value (L 1210 cells; PDD 9 mg/kg) is reported as 7e-14 g, the “platinum per cell” value (L 1210 cells) is reported as 700. 10^-16 and the ILS (sarcoma S 180; 10 mg/kg) is reported as 29%. The ILS (sarcoma S 180; 25 mg/kg) was 46%, the ILS (sarcoma S 180; 50 mg/kg) was 112% and the ILS (sarcoma S 180; 100 mg/kg) was 171%. It also gave a Survivals (sarcoma S 180; S 180, 10 mg/kg i.p. on D1, day 60) of 0%, a Survivals (sarcoma S 180; S 180, 25 mg/kg i.p. on D1, day 60) of 0% and a Survivals (sarcoma S 180; S 180, 50 mg/kg i.p. on D1, day 60) of 20%. The Survivals (sarcoma S 180; S 180, 100 mg/kg i.p. on D1, day 60) was 40% and the “anti-tumour activity (in words)” value (sarcoma S 180; sarcoma S 180) was “Very marked anti-tumor activity; also recorded: exerts the anti-tumour activity”.
